In patent US20130017548A1, “SCREENING METHOD” (AJINOMOTO, INC., priority 2009, published 2013):

Experiments:
PIKfyve = target: T1, PIKfyve (Homo sapiens, UniProt Q9Y2I7); test: Assessment of lipid kinase inhibitory activity (competition with biotinyl acyl phosphate ATP derivative in Jurkat cell extract, LC-MS/MS); assay type: binding; conditions: test compound 30 nM or 300 nM, FIG. 1
T1 construct: the supernatant resulting from centrifugation at 100,000×g for 60 minutes was used as a cell extract; endogenous in cells; host or cells: Jurkat (human T-lymphocyte line), cell extract
T1 sequence (Q9Y2I7 whole entry): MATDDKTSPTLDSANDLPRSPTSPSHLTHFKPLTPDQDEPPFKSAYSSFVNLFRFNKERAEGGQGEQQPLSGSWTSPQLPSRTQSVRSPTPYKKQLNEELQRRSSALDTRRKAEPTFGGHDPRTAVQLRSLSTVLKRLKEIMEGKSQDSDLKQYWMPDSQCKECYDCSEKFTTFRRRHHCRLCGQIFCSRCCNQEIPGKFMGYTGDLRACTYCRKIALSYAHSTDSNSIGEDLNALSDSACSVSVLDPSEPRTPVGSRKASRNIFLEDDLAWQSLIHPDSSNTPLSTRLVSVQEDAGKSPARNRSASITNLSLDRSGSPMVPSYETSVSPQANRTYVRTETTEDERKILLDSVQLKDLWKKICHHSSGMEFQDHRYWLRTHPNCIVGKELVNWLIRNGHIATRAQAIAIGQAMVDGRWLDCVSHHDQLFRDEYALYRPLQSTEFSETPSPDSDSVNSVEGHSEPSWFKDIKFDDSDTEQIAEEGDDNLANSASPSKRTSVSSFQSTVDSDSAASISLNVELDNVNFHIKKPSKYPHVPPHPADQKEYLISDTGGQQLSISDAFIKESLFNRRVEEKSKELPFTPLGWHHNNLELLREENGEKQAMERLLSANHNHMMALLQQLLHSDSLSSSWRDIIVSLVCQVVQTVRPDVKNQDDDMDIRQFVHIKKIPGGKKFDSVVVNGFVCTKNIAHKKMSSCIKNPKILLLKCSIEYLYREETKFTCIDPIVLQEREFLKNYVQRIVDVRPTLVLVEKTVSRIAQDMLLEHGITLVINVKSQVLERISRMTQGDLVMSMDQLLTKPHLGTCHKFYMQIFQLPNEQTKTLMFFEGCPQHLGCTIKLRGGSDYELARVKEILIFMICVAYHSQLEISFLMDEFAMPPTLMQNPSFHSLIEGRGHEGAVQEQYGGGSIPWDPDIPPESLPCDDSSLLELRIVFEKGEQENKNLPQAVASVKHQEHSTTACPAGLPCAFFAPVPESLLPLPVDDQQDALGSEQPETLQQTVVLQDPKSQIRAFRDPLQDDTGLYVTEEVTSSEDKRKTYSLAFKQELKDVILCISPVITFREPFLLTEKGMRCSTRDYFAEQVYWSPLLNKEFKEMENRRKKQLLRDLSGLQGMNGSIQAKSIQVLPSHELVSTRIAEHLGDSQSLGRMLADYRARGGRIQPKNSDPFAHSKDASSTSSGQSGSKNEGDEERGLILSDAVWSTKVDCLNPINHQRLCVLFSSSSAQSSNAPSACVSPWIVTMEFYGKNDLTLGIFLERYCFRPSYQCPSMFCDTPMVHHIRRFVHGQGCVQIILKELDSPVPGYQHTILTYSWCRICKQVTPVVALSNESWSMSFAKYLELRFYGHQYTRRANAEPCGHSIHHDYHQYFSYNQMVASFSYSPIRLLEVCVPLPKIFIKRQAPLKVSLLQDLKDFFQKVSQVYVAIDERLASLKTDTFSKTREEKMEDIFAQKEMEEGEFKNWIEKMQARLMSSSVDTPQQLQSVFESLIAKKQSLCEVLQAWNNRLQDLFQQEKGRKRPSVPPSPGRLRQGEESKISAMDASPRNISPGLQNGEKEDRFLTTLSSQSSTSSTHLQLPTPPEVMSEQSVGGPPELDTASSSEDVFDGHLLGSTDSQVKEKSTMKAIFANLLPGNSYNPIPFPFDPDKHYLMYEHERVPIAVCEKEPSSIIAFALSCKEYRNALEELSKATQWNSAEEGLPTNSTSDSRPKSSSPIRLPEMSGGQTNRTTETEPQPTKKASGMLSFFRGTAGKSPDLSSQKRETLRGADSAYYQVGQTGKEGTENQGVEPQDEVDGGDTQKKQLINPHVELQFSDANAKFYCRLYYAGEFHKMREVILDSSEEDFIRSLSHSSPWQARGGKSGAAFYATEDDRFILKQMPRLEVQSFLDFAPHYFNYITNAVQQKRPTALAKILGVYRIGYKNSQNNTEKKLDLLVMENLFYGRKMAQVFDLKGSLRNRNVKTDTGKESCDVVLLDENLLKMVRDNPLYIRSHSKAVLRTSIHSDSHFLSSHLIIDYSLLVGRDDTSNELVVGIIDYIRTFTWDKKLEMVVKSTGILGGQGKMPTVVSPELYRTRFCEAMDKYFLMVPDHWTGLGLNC
Description: Lipid kinase inhibitory activity was assessed according to the method described in Biochemistry 2007, 46, 350-358. Jurkat cell derived from human lymphocyte was suspended in a lysis buffer (20 mM Hepes, 150 mM NaCl, 0.1% TritonX-100, 20 mM MnCl2) by sonication, and the supernatant resulting from centrifugation at 100,000×g for 60 minutes was used as a cell extract. To the cell extract (5 mg/mL), a test compound (30 nM or 300 nM) or a solvent alone was added and incubated for 5 minutes. Then, an ATP derivative labeled with biotinyl acyl phosphate (20 μM) was added and incubated for 5 minutes, and the resultant was further subjected to digestion with trypsin. […] The biotin-labeled peptide was analyzed by LC-MS/MS for sequence identification and measurement of the elution amount of the lipid-kinase-derived peptide so as to assess competitive inhibitory activity of the test compound for the binding of the ATP derivative to various lipid kinases. […]
Using this assessment system, the inhibitory activity of the test compound for other lipid kinases was assessed (other lipid kinases may be commercially available or may be produced according to a method described in a known document) and the results thereof are shown in FIG. 1.

[1] = test system: mouse enterocolitis model; test: Inflammation suppressive action in mouse IL-10-/- cell transfer enterocolitis model; assay type: in vivo; conditions: FIG. 3
Description: A method for producing a mouse IL-10^−/− cell transfer enterocolitis model is described, for example, in Gastroenterology. 2009 February; 136(2):564-74.e2. Epub 2008 Oct. 7.
Measurement of an intestine weight as a drug efficacy indicator was carried out according to the following method. On the last day for autopsy, large intestine from the anus to immediately before the cecum was removed. The content of the intestine was washed with physiological saline, water was roughly removed and then the weight was measured.
Results from the assessment of the inflammation suppressive action of Compound 1 in mouse enterocolitis model using this assessment system are shown in FIG. 3.

[2] = test system: IL-12 and IL-23 productions; conditions: productions strongly induced by INF-γ; cited from earlier work
[3] = test system: IL-12b expression in mouse peritoneal macrophage; test: IL-12-production suppressive action by PIKfyve and Vac14 knockdown (siRNA, quantitative PCR); assay type: cell-based; conditions: siRNA 1 μM, mouse interferon-γ and SAC stimulation 3.5 hours, normalized to GAPDH; FIG. 4
Description: Assessment of the effects of knockdown of PIKfyve and Vac14 expressed in mouse peritoneal macrophage using siRNA method was carried out as described below. Mouse peritoneal macrophage was isolated according to the method described in Laboratory Test Example 2, and subsequently suspended in Nucleofection solution attached to Mouse macrophage nucleofection kit (Lonza) to give 3.3×10^6 cells/mL. siRNA was added to the cell suspension to a final concentration of 1 μM and subjected to Nucleofection according to the attached protocol. The following siRNAs were used. […]
A FBS-free RPMI1640 medium was used for culture at 37° C. in the presence of 5% CO2 for 2 hours and then the medium was replaced by 0.5 ml of Dulbecco's MEM medium containing RPMI 1640 medium supplemented with 3% FBS for culture at 37° C. in the presence of 5% CO2 for 4 hours. Subsequently, 3.3 ng/mL mouse interferon-γ and 0.0017% (v/v) SAC were added and cultured for 3.5 hours and then the expression level of cytokine mRNA in the cell was measured.
Extraction and purification of total RNA from the mouse peritoneal macrophage was carried out using RNeasy midi kit (Qiagen 75144) according to the attached protocol. […] The resultant removed of the remaining […] was used as cDNA for quantitative PCR. […]

## Cc1cccc(C=NNc2cc(N3CCOCC3)n3nc(-c4ccncc4)cc3n2)c1 [Compound 1, N-(3-METHYL-BENZYLIDENE)-N′-(7-MORPHOLINE-4-YL-2-PYRIDINE-4-YL-PYRAZOLO[1,5-A]PYRIMIDINE-5-YL)-HYDRAZINE]
PIKfyve
  inhibitory activity against various lipid kinases (selectivity): inhibitory activity selective to PIKfyve
[1]; 3, 10, 30 mg/kg, increase by IL-10-/- cell transfer
  weight of the large intestine: suppressed dependent on the dosage
[1]; administration group of 30 mg/kg, once a day
  suppressive action on large intestine weight: Significant suppressive action

## C(=NNc1cc(N2CCOCC2)n2nc(-c3ccncc3)cc2n1)c1ccc2cc[nH]c2c1 [Compound 2, N-(1H-INDOLE-6-YLMETHYLENE)-N′-(7-MORPHOLINE-4-YL-2-PYRIDINE-4-YL-PYRAZOLO[1,5-A]PYRIMIDINE-5-YL)-HYDRAZINE]
PIKfyve
  inhibitory activity against various lipid kinases (selectivity): inhibitory activity selective to PIKfyve

## O=C1CCC(N2C(=O)c3ccccc3C2=O)C(=O)N1 (stereo not drawn) [thalidomide]
[2]
  suppression of IL-12 and IL-23 productions: cannot sufficiently suppress

## Vac14 siRNA: Silencer Select Pre-designed siRNA (Sense SEQ ID NO: 11, Antisense SEQ ID NO:12, Ambion, s107929) as Vac14 siRNA (sense GAUUUACUCCAACAACCAATT; antisense UUGGUUGUUGGAGUAAAUCCT; chemistry not given here)
[3]
  IL-12b expression (fold-change over basal): significantly suppressed
